Patent US11167007B2, “FOXM1 modulators and uses thereof” (City of Hope, priority 2016, dated 2021)
“Also recorded” adds a separate entry of the source.

Columns and labels:
AR [1] = assay: Androgen-responsive luciferase reporter assay in GT1-7 cells; assay type: cell-based, murine; conditions: for inhibition of AR transcriptional activity (luciferase): GT1-7 cells, treated overnight, FIG. 2A; for Fold Difference: GT1-7 luciferase
Method: Luciferase Reporter Assay. […] The following day, cells and drugs were distributed to 96-well plates. 24 hours later, luciferase activity was assessed by a dual luciferase assay kit (Promega) on the Tecan plate reader. Samples were run in quadruplicates and a Student's t test was performed to determine significance, where p<0.05 was considered significant.
In order to identify potential cell-type selective AR modulators, the FRET-based assay of AR conformation change was utilized. AR signaling is a complex process involving many steps in addition to ligand binding. One crucial step is the ligand-induced conformational change of AR, which brings the carboxy (C)- and amino (N)-termini of the receptor together. Full length AR with cyan fluorescent protein (CFP) or yellow fluorescent protein (YFP) fused to either end (CARY) produces a FRET signal upon AR conformation change (FIG. 1A). This produces an accurate and quantifiable read-out of AR activity. […] Cells were plated in 96 wells and treated with library compounds 24 hours prior to accessing conformational changes by FRET. […] Candidate hits were then further evaluated by dose response. […] In addition to FRET, AR transcriptional activity was also assessed in several cell lines by transfecting cells with a luciferase reporter driven by the human PSA promoter.

AR [2] = assay: Androgen-responsive luciferase reporter assay in C2C12 cells; assay type: cell-based, murine; conditions: treated overnight, FIG. 2A
Excerpt: Luciferase Reporter Assay. Cells were transfected using Lipofectamine Plus (Invitrogen) with a normalization plasmid (pRL-SV40, Promega) and an androgen responsive plasmid (MMTV-luciferase or PSA-luciferase) as described in Jones et al, ACS Chem Biol, 3(7):412-8 (2008), and, where indicated, with an shRNA plasmid targeting FOXM1 (adapted for mouse FOXM1 sequence targeting) a scrambled control shRNA plasmid, or ARQ24 or ARQ65 plasmids. Christensen et al, PLoS One, 8(1):e54556 (2013). The following day, cells and drugs were distributed to 96-well plates. 24 hours later, luciferase activity was assessed by a dual luciferase assay kit (Promega) on the Tecan plate reader. Samples were run in quadruplicates and a Student's t test was performed to determine significance, where p<0.05 was considered significant.
In order to identify potential cell-type selective AR modulators, the FRET-based assay of AR conformation change was utilized. AR signaling is a complex process involving many steps in addition to ligand binding. One crucial step is the ligand-induced conformational change of AR, which brings the carboxy (C)- and amino (N)-termini of the receptor together. Full length AR with cyan fluorescent protein (CFP) or yellow fluorescent protein (YFP) fused to either end (CARY) produces a FRET signal upon AR conformation change (FIG. 1A). This produces an accurate and quantifiable read-out of AR activity. Jones et al, ACS Chem Biol, 3(7):412-8 (2008). Because the interest was in the potential of neuron selective AR inhibitors for treatment of SBMA, the initial screen was carried out in CARY-transfected GT1-7 cells, which are a mouse model of hypothalamic neurons. Liposits et al, Endocrinology, 129(3):1575-83 (1991). Cells were plated in 96 wells and treated with library compounds 24 hours prior to accessing conformational changes by FRET. […] Candidate hits were then further evaluated by dose response. […] In addition to FRET, AR transcriptional activity was also assessed in several cell lines by transfecting cells with a luciferase reporter driven by the human PSA promoter. […]

Row | Structure (SMILES) | inhibition of AR transcriptional activity (luciferase) (AR [1]) | inhibition of AR transcriptional activity (luciferase) (AR [2]) | Fold Difference (AR [1]; DHT - 100 nM thiostrepton, Control shRNA) | Fold Difference (AR [1]; DHT - 100 nM thiostrepton, FOXM1 shRNA) | Fold Difference (AR [1]; DHT-10 nM thiostrepton, Control shRNA) | Fold Difference (AR [1]; DHT-10 nM thiostrepton, FOXM1 shRNA) | potency of thiostrepton on AR activity after decreasing FOXM1 expression (AR [1]; FOXM1 shRNA vs control, GT1-7, FIG. 3B)
1 | C=C(NC(=O)C(=C)NC(=O)c1csc(C2=N[C@@H]3c4csc(n4)[C@H]4NC(=O)c5csc(n5)[C@H]([C@](C)(O)[C@@H](C)O)NC(=O)[C@H]5CSC(=N5)/C(=C/C)NC(=O)[C@H]([C@@H](C)O)NC(=O)c5csc(n5)[C@]3(CC2)NC(=O)[C@H](C)NC(=O)C(=C)NC(=O)C(=C)NC(=O)[C@H](C(C)C)N[C@@H]2C=Cc3c([C@H](C)O)cc(nc3[C@H]2O)C(=O)O[C@@H]4C)n1)C(N)=O [NSC285116, siomycin A] | selectively inhibit AR activity | not C2C12 cells | – | – | – | – | –
2 | C=C(NC(=O)C(=C)NC(=O)c1csc(C2=N[C@@H]3c4csc(n4)[C@H]4NC(=O)c5csc(n5)[C@H]([C@](C)(O)[C@@H](C)O)NC(=O)[C@H]5CSC(=N5)/C(=C/C)NC(=O)[C@H]([C@@H](C)O)NC(=O)c5csc(n5)[C@]3(CC2)NC(=O)[C@H](C)NC(=O)C(=C)NC(=O)[C@H](C)NC(=O)[C@H]([C@@H](C)CC)N[C@@H]2C=Cc3c([C@H](C)O)cc(nc3[C@H]2O)C(=O)O[C@@H]4C)n1)C(N)=O [thiostrepton] | most potent; also recorded: nanomolar potency; also recorded: selectively inhibit AR activity | not C2C12 cells | 2.04 | 1.62 | 1.54 | 1.34 | diminished the potency
